Read-outs that look alike come from different tables or passages of the source.
Experiments:
Tocilizumab = assay: Microtiter plate chromatography of resins, Tocilizumab (bound, yield); type: binding, humanized
host cell proteins (HCP) = assay: Microtiter plate chromatography of resins, host cell proteins (bound); type: binding, CHO
Palivizumab = assay: Microtiter plate chromatography of resins, Palivizumab (bound, yield); type: binding, humanized
Bevacizumab [1] = assay: Microtiter plate chromatography of resins, Bevacizumab whole IgG (bound, yield, selectivity); type: binding, humanized
Bevacizumab [2] = molecular target: T1, Bevacizumab (Homo sapiens, UniProt P01857); assay: as above; type: binding, humanized
T1 construct: fused on or other part: humanised anti-VEGF-A VH domain N-terminal of the gamma-1 constant region (engineered, no UniProt entry)

[3] = system: human poly-IgG (h-poly-IgG); assay: Microtiter plate chromatography of resins, human poly-IgG (bound, yield); type: binding
[4] = fraction of bound Bevacizumab whole IgG / fraction of bound HCP, truncated beyond values of 10
[5] = fraction of whole IgG Bevacizumab bound to resin
[6] = mass of whole IgG Bevacizumab eluted / mass injected
[7] = fraction of injected protein bound to resin
[8] = fraction of injected host cell proteins bound to resin
[9] = fraction of injected whole IgG bound to resin
[10] = mass eluted / mass injected, whole IgG

Row | SMILES | Tocilizumab Bound (%) (Tocilizumab) | Tocilizumab Yield (%) (Tocilizumab) | HCP Bound (%) (host cell proteins (HCP); host cell proteins) | Palivizumab Bound (%) (Palivizumab) | Palivizumab Yield (%) (Palivizumab) | Bevacizumab IgG Bound (%) (Bevacizumab [2]; [5]) | Bevacizumab IgG Yield (%) (Bevacizumab [2]; [6]) | h-poly-IgG Bound (%) [3] | h-poly-IgG Yield (%) [3] | Selectivity (Bevacizumab [1]) | other results
1 | COc1ccc(NC(=O)c2cn3ncccc3n2)cc1C(=O)NCCOCCOCC(=O)NCCCC[C@H](NC(=O)COCCOCCNC(=O)c1cc(NC(=O)c2cn3ncccc3n2)ccc1OC)C(=O)NCCCN [Ligand L62, (S)-2,6-Bis{8-[5-(Imidazo[1,2-b]pyridazin-2-ylcarboxamido)-2-methoxyphenylcarboxamido]-3,6-dioxaoctanoylamido}hexanoic acid (3-amino-1-propyl)amide] | 95% | 91% | 3% | 84% | 77% | 100% | 100% | 89% | 89% | – | Selectivity (Bevacizumab [1]; [4]): 10.0
2 | COc1ccc(NC(=O)c2nnc3ccccn23)cc1C(=O)NCCCN [Ligand L43, 2-Methoxy-5-([1,2,4]triazolo[4,3-a]pyridin-3-ylcarboxamido)benzoic acid (3-amino-1-propyl)amide] | 88% | 88% | 13% | 61% | 43% | 100% | 90% | 90% | 90% | 8.0 | –
3 | COc1ccc(NC(=O)c2cc(-c3ccco3)ccn2)cc1C(=O)NCCCN [Ligand L52, 5-[4-(2-Furyl)pyridin-2-ylcarboxamido]-2-methoxybenzoic acid (3-amino-1-propyl)amide] | 100% | 100% | 41% | 100% | 83% | 100% | 99% | 100% | 100% | 2.4 | –
4 | Cn1nc(C(=O)Nc2ccc(O)c(C(=O)NCCCN)c2)cc1-c1ccco1 [Ligand L30, 5-[5-(2-Furyl)-1-methylpyrazol-3-yl]carboxamido-2-hydroxybenzoic acid N-(3-aminopropyl)amide] | 83% | 79% | 42% | 68% | 66% | 100% | 93% | 74% | 53% | 2.4 | –
5 | COc1ccc(NC(=O)c2cn3ccccc3n2)cc1C(=O)NCCCN [Ligand L57, 5-(Imidazo[1,2-a]pyridin-2-ylcarboxamido)-2-methoxybenzoic acid (3-amino-1-propyl)amide] | 78% | 78% | 16% | 44% | 42% | 100% | 90% | 53% | 53% | 6.3 | –
6 | COc1ccc(NC(=O)c2nn(C)c3ncccc23)cc1C(=O)NCCCN [Ligand L44, 2-Methoxy-5-(1-methylpyrazolo[3,4-b]pyridin-3-ylcarboxamido)benzoic acid (3-amino-1-propyl)amide] | 78% | 78% | 4% | 56% | 56% | 100% | 100% | 73% | 73% | – | Selectivity (Bevacizumab [1]; [4]): 10.0
7 | Cn1nc(NC(=O)c2cccc(C(=O)NCCCN)c2)c2ccccc21 [Ligand L71, Isophthalic acid N-(3-aminopropyl)-N′-(1-methylindazol-3-yl)amide] | – | – | – | – | – | – | – | – | – | 4.0 | Tocilizumab Bound (%) (Tocilizumab; [7]): 51%; Tocilizumab Yield (%) (Tocilizumab; mass eluted / mass injected): 49%; HCP Bound (%) (host cell proteins (HCP); [8]): 25%; Palivizumab Bound (%) (Palivizumab; [7]): 24%; Palivizumab Yield (%) (Palivizumab; mass eluted / mass injected): 24%; Bevacizumab IgG Bound (%) (Bevacizumab [2]; [9]): 100%; Bevacizumab IgG Yield (%) (Bevacizumab [2]; [10]): 88%; h-poly-IgG Bound (%) [3, 7]: 45%; h-poly-IgG Yield (%) ([3]; mass eluted / mass injected): 45%
8 | COc1ccc(NC(=O)c2cncc(-c3ccccc3)c2)cc1C(=O)NCCCN [Ligand L11, 2-Methoxy-5-(3-phenylpyridin-5-yl)carboxamidobenzoic acid N-(3-aminopropyl)amide] | 100% | 89% | 56% | 78% | 75% | 95% | 94% | 89% | 79% | 1.7 | –
9 | COc1ccc(-c2noc(C(=O)Nc3ccc(OC)c(C(=O)NCCCN)c3)n2)cc1 [Ligand L54, 2-Methoxy-5-[3-(4-methoxyphenyl)-1,2,4-oxadiazol-5-ylcarboxamido]benzoic acid (3-amino-1-propyl)amide] | 100% | 100% | 36% | 100% | 84% | 100% | 100% | 100% | 98% | 2.8 | –
10 | COc1ccc(NC(=O)c2nc(-c3ccco3)no2)cc1C(=O)NCCCN [Ligand L55, 5-[3-(2-Furyl)-1,2,4-oxadiazol-5-ylcarboxamido]-2-methoxybenzoic acid (3-amino-1-propyl)amide] | 100% | 100% | 31% | 100% | 99% | 100% | 95% | 100% | 93% | 3.3 | –
11 | COc1ccc(NC(=O)c2cn3ccsc3n2)cc1C(=O)NCCOCCOCCNC(=O)NCCOCCOCCN [Ligand L69, N-(8-Amino-3,6-dioxaoctyl)-N′-{8-[5-(imidazo[2,1-b]thiazol-6-ylcarboxamido)-2-methoxyphenylcarboxamido]-3,6-dioxaoctyl}urea] | – | – | – | – | – | – | – | – | – | – | Tocilizumab Bound (%) (Tocilizumab; [7]): 78%; Tocilizumab Yield (%) (Tocilizumab; mass eluted / mass injected): 73%; HCP Bound (%) (host cell proteins (HCP); [8]): 2%; Palivizumab Bound (%) (Palivizumab; [7]): 45%; Palivizumab Yield (%) (Palivizumab; mass eluted / mass injected): 45%; Selectivity (Bevacizumab [1]; bound Bevacizumab whole IgG / bound HCP, truncated beyond values of 10): 10.0; Bevacizumab IgG Bound (%) (Bevacizumab [2]; [9]): 100%; Bevacizumab IgG Yield (%) (Bevacizumab [2]; [10]): 100%; h-poly-IgG Bound (%) [3, 7]: 63%; h-poly-IgG Yield (%) ([3]; mass eluted / mass injected): 63%
12 | COc1ccc(NC(=O)c2cc(-c3ccco3)n(C)n2)cc1C(=O)N(C)CCCN [Ligand L28, 5-[5-(2-Furyl)-1-methylpyrazol-3-yl]carboxamido-2-methoxybenzoic acid N-(3-aminopropyl)-N-methylamide] | 63% | 61% | 35% | 55% | 50% | 100% | 81% | 58% | 44% | 2.9 | –
